The source of these data is patent publication US11938125B2, “Use of Hsp70 as a regulator of enzymatic activity” (Zevra Denmark A/S, priority 2008, dated 2024).

The test system of one data set is WT and Hsp70 iMEFs. In words: Viability of MEFs (MTT reduction). Format: cell-based. The conditions noted are these: 3 h. The protocol: The viability of cells was analyzed by the 3-(4,5-dimethylthiazole-2-yl)-2,5-diphenyltetrazolium bromide (MTT) reduction assay as described previously^67.
Assays for cell viability. Cell density was assessed by the 3-(4,5-dimethylthiazole-2-y)-2,5-[…] (MTT, SIGMA-Aldrich) reduction assay essentially as described in the art. Apoptosis-like cell death was assessed by staining the cells with 0.05 μg/ml Hoechst 33342 (Molecular Probes) and counting cells with condensed nuclei in an inverted Olympus IX-70 fluorescent Microscope (Filter U-MWU 330-385 nm). For each experiment a minimum of eight randomly chosen areas were counted.
(In general: Tetrazolium assays rely on reduction of a dye to a coloured formazan, in cell work by metabolically active cells.)

The subject of data set [1] is lysosomes of WT and Hsp70 iMEFs. Nature of the data set: Cytosolic cathepsin activity (zFRase) in MEFs. In kind it is cell-based, murine. The conditions noted are these: 3 h.
Experimental: Cells were treated with cisplatin as indicated, cytosolic fractions were obtained by digitonin treatment and cytosolic cysteine cathepsin (zFRase) and caspase-3-like (DEVDase) activities were determined. […] The total and cytoplasmic (digitonin-extracted) cathepsin activities were measured in digitonin-treated samples using zFR-AFC (Enzyme System Products) probe as described in the art.
A further data set relates to lysosomes of Hsp70-MEFs. In words: Live single-cell imaging of loss of lysosomal integrity (photo-oxidation) in Hsp70-MEFs. In kind it is cell-based, murine. The conditions noted are these: subtoxic desipramine 12.5 and 25 μM, 3 h.
The subject of another data set is BMP. Nature of the data set: BIAcore surface plasmon resonance with immobilized BMP-containing LUVs. In kind it is binding. To be noted: pH 4.5. The protocol:
(§1) For preparation of LUVs a lipid mixture consisting of 10 mol % sphingomyelin, 50 mol % phosphatidylcholine, 20 mol % cholesterol and 20 mol % BMP dissolved in organic solvents, was dried under a stream of argon and rehydrated in Tris/HCl buffer (pH 7.4) (Kolzer et al., 2004). The mixture was freeze-thawed nine times in liquid nitrogen and then in an incubator at 37° C. After ultrasound bath for 15 min the mixture was passed 21 times through a polycarbonate membrane with a pore diameter of 100 nm. Surface plasmon resonance measurements were performed using a BIAcore 2000 system at 25° C. LUVs (total lipid concentration 0.1 mM) were immobilized on the surface of a L1 sensor chip (BIAcore) in PBS (loading buffer). The running buffer used was sodium acetate buffer (50 mM, pH 4.5). As a control, acid sphingomyelinase (0.2 μM, 60 μl in running buffer) was injected directly on the liposome surface. Response units between 4100 RU-5250RU were obtained. The protein of interest was injected in running buffer at a flow rate of 20 μl/min at the concentrations indicated. After injection a dissociation phase of 10 min was appended.
as §1, with “Surface Plasmon Resonance (BIAcore). For” for “For”, “7.4).” for “7.4) (Kolzer et al., 2004).”, “The protein of interest was injected in running buffer at a flow rate of 20 μl/min at the concentrations indicated. After injection a dissociation phase of 10 min was appended.” left out
A general note: Surface plasmon resonance follows binding to a sensor surface in real time, without labels.

Data set [2] relates to acid sphingomyelinase (ASM), endogenous mutated and loaded rASM. Nature of the data set: ASM activity of NPDA fibroblasts. In kind it is cell-based, human. To be noted: 300 nM rHsp70 48 h, or 150 nM rASM alone or with 300 nM rHsp70 24 h. An excerpt:
WT- and Hsp70-MEFs were generated, immortalized and maintained as described in the art. Human NPDA fibroblasts (83/24) originate from a skin biopsy of a patient with hepatosplenomegaly. Recombinant proteins were generated using the pET-16b vector system and Ni^2+-affinity-purification (Novagen), and labeled with Alexa Fluor 488 according to manufacturers protocol (Molecular Probes). To analyze the lysosomal integrity, we developed a real time imaging method of cells stained with acridine orange, a metachromatic weak base that accumulates in the acidic compartment of the cells staining them red and sensitizing them to photo-oxidation. The photo-oxidation-induced loss of the lysosomal pH-gradient and leakage of acridine orange to the cytosol from individual lysosomes was quantified visually as “loss of red dots” in U2-O—S cells and as a decrease in red and an increase in green fluorescence by Zeiss LSM DUO Software in fibroblasts. The total and cytoplasmic (digitonin-extracted) cathepsin activities were measured in digitonin-treated samples using zFR-AFC (Enzyme System Products) probe as described in the art. The tryptophan fluorescence spectra and liposome 900 light scattering were analyzed in a HEPES buffer (20 mM HEPES, 0.1 mM EDTA, pH as indicated) essentially as described in the art. […]

For data set [3], the system named is lysosomes of NPDA patient fibroblasts. In words: Lysosomal stability of NPDA fibroblasts (photo-oxidation, live single-cell imaging). To be noted: NPDA fibroblasts, 24 h, 300 nM rHsp70, 150 nM rASM or combination. Format: cell-based, human. Here is the method: Assays for lysosomal integrity. Sub-confluent cells incubated with 2 μg/ml acridine orange for 15 min at 37° C. were washed, irradiated and analyzed in Hanks balanced salt solution complemented with 3% fetal calf serum. Cells for single cell imaging were selected from 8 pre-defined areas of each well in transmitted light-mode after which the same cells were immediately visualized and exposed to blue light from USH102 100 W mercury arc burner (Ushio electric) installed in a U-ULS100HG housing (Olympus) for 20 sec. Fluorescence microscopy was performed on Olympus IX-70 inverted microscope with a LCPlanF1×20 objective with NA=0.40. Loss of lysosomal pH gradient was quantified by counting the loss of intense red staining. A more elaborate method for assaying lysosomal integrity was developed to handle the larger lysosomal compartment of the various fibroblasts used in this study. Cells for single cell imaging were selected from 8 pre-defined areas of each well in transmitted light-mode after which the same cells were immediately and continuously exposed to 489 nm light from a 100 mW diode laser while laser scanning micrographs where captured every 330 ms on a Zeiss LSM LIVE DUO confocal system in two channels defined by bandpass filters for 495-555 nm (green) and LP650 nm (Red) light. The resulting timelapse movies where subsequently analysed by the integrated Zeiss LSM DUO software. The total and cytoplasmic (digitonin-extracted) cathepsin activities were measured in digitonin-treated samples using zFR-AFC (Enzyme System Products) probe as described in the art.

The next data set relates to NPDA fibroblasts. Nature of the data set: Lysosomal area of confocal cross sections, NPDA fibroblasts. In kind it is cell-based, human. To be noted: NPDA fibroblasts, 24 h, 300 nM rHsp70 or W90F, 150 nM rASM or combination. An excerpt: Immunodetection and microscopy. Primary antibodies used included mouse monoclonal antibodies against Hsp70 (2H9; kindly provided by Boris Margulis, Russian Academy of Sciences, St. Petersburg, Russia), glyceraldehyde-3-phosphate dehydrogenase (GAPDH; Biogenesis), BMP (6C4), lysosomal integral membrane protein-1 (H5C6; developed by J. Thomas August and James E. K. Hildreth and obtained from the Developmental Studies Hybridoma Bank developed under the auspices of the NICHD and maintained by The University of Iowa, Department of Biological Sciences, Iowa City, USA). Proteins separated by 10% SDS-PAGE and transferred to a nitrocellulose membrane were detected by using indicated primary antibodies, appropriate peroxidase-conjugated secondary antibodies from Dako, ECL Western blotting reagents (Amersham), and Luminescent Image Reader (LAS-1000Plus, Fujifilm). For immunocytochemistry Alexa […] or Alexa Fluor®-488-conjugated secondary antibodies were used. Lysotracker Red® was used for live visualization of the lysosomal compartment. Fluorescence images were taken using a Zeiss Axiovert 100M laser scanning microscope. Lysotracker quantification and timelapse movies for lysosomal integrity were done on a Zeiss LSM LIVE DUO system.

Experimental for lysosomes of Hsp70-MEFs: Assays for lysosomal integrity. Sub-confluent cells incubated with 2 μg/ml acridine orange for 15 min at 37° C. were washed, irradiated and analyzed in Hanks balanced salt solution complemented with 3% fetal calf serum. Cells for single cell imaging were selected from 8 pre-defined areas of each well in transmitted light-mode after which the same cells were immediately visualized and exposed to blue light from USH102 100 W mercury arc burner (Ushio electric) installed in a U-ULS100HG housing (Olympus) for 20 sec. Fluorescence microscopy was performed on Olympus IX-70 inverted microscope with a […] 1×20 objective with NA=0.40. Loss of lysosomal pH gradient was quantified by counting the loss of intense red staining. A more elaborate method for assaying lysosomal integrity was developed to handle the larger lysosomal compartment of the various fibroblasts used in this study. Cells for single cell imaging were selected from 8 pre-defined areas of each well in transmitted light-mode after which the same cells were immediately and continuously exposed to 489 nm light from a 100 mW diode laser while laser scanning micrographs where captured every 330 ms on a Zeiss LSM LIVE DUO confocal system in two channels defined by bandpass filters for 495-555 nm (green) and LP650 nm (Red) light. The resulting timelapse movies where subsequently analysed by the integrated Zeiss LSM DUO software.

Consider `CNCCCN1c2ccccc2CCc2ccccc21` [desipramine], for which, in the data set with WT and Hsp70 iMEFs, the “desipramine-induced cell death and lysosomal leakage in Hsp70-MEFs as compared to WT-MEFs” value is reported as “significantly reduced”. For the same molecule, the “viability (MTT reduction)” value with WT and Hsp70 iMEFs (MEFs) was “reduced the viability of MEFs in a dose-dependent manner”. In addition, the “permeabilization of lysosomes (leakage of lysosomal cathepsins into the cytosol)” value in data set [1] is “massive permeabilization of lysosomes”. For the same molecule, the “lysosomal stress resistance upon photo-oxidation” value in the data set with lysosomes of Hsp70-MEFs is “reverted the lysosomal stress resistance of Hsp70-MEFs to the level of WT-MEFs”.

B1: rASM: recombinant acid sphingomyelinase (protein, UniProt P17405 47-631, looked up)
Sphingomyelin …: LALSDSRVLWAPAEAHPLSPQGHPARLHRIVPRLRDVFGWGNLTCPICKGLFTAINLGLKKEPNVARVGSVAIKLCNLLKIAPPAVCQSIVHLFEDDMVEVWRRSVLSPSEACGLLLGSTCGHWDIFSSWNISLPTVPKPPPKPPSPPAPGAPVSRILFLTDLHWDHDYLEGTDPDCADPLCCRRGSGLPPASRPGAGYWGEYSKCDLPLRTLESLLSGLGPAGPFDMVYWTGDIPAHDVWHQTRQDQLRALTTVTALVRKFLGPVPVYPAVGNHESTPVNSFPPPFIEGNHSSRWLYEAMAKAWEPWLPAEALRTLRIGGFYALSPYPGLRLISLNMNFCSRENFWLLINSTDPAGQLQWLVGELQAAEDRGDKVHIIGHIPPGHCLKSWSWNYYRIVARYENTLAAQFFGHTHVDEFEVFYDEETLSRPLAVAFLAPSATTYIGLNPGYRVYQIDGNYSGSSHVVLDHETYILNLTQANIPGAIPHWQLLYRARETYGLPNTLPTAWHNLVYRMRGDMQLFQTFWFLYHKGHPPSEPCGTPCRLATLCAQLSARADSPALCRHLMPDGSLPEAQSLWPRPLFC
Consider B1, for which the “affinity for BMP compared to that of Hsp70” value in the data set on BMP is “half”. For the same molecule, the ASM activity result in data set [2] was “increased ASM activity”. Moreover, the lysosomal stability entry in data set [3] is on record as “ability to stabilize the lysosomes”. For the same molecule, the “lysosomal area / volume of the lysosomal compartment” value with NPDA fibroblasts is reported as “normalize the volume of the dramatically enlarged lysosomal compartment”.
